Test results from ChEMBL document CHEMBL1145215, “Design, synthesis, and biological evaluation of achiral analogs of duocarmycin SA” (Bioorg Med Chem Lett, 2005).

What was measured:
K562 = experiment: Cytotoxicity was determined against K562 (chronic human myeloid leukemia )cells; type: functional, cell-based
LS174T = experiment: Cytotoxicity against LS174T (human colon carcinoma )cells; type: functional, cell-based

| Structure (SMILES) | IC50 (K562) [nM] | IC50 (LS174T) [nM] |
| --- | --- | --- |
| COc1cc2cc(C(=O)Nc3cc(O)ccc3CCCl)[nH]c2c(OC)c1OC | 1470 | 13800 |
| COC(=O)c1[nH]c2c(O)cc(NC(=O)c3cc4cc(OC)c(OC)c(OC)c4[nH]3)c(CCCl)c2c1C(=O)OC | 25 | 4 |
| COC(=O)c1[nH]c2c(O)cc(NC(=O)c3cc4cc(NC(=O)c5cc6ccccc6o5)ccc4[nH]3)c(CCCl)c2c1C(=O)OC | 25 | 4 |
